Measurements taken from ChEMBL document CHEMBL1136048, “2a-[4-(Tetrahydropyridoindol-2-yl)butyl]tetrahydrobenzindole derivatives: new selective antagonists of the 5-hydroxytryptamine7 receptor” (J Med Chem, 2002).

Key:
[1] = molecular target: Serotonin 2 (5-HT2) receptor (Rattus norvegicus, UniProt P30994+P08909+P14842); test: In vitro binding affinity to 5-hydroxytryptamine 2 receptor of rat cerebral cortex membranes using [3H]ketanserin as the radioligand; type: tissue-based, Membrane
[2] = molecular target: 5-hydroxytryptamine receptor 7 (Homo sapiens, UniProt P34969); test: Binding affinity to human recombinant 5-hydroxytryptamine 7 receptor in mammalian cells using [3H]5-CT as radioligand; type: cell-based
Sequence of 5-hydroxytryptamine receptor 7 (P34969 whole entry): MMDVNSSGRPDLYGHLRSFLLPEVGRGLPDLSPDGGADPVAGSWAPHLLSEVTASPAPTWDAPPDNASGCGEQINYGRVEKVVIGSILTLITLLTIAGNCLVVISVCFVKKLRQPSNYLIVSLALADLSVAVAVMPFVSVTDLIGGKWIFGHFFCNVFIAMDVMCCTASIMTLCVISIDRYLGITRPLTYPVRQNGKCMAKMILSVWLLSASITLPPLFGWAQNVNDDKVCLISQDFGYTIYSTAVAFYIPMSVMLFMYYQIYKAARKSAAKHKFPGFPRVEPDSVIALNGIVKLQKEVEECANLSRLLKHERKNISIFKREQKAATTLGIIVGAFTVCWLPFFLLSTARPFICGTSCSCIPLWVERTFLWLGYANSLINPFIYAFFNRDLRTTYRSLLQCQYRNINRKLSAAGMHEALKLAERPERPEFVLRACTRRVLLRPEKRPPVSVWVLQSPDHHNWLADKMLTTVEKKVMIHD

[3] = molecular target: 5-hydroxytryptamine receptor 4 (Cavia porcellus, UniProt O70528); test: In vitro binding affinity at 5-hydroxytryptamine 4 receptor in guinea pig striatum using 3[H]GR-113808 as the radioligand; type: tissue-based
Sequence of 5-hydroxytryptamine receptor 4 (O70528 whole entry): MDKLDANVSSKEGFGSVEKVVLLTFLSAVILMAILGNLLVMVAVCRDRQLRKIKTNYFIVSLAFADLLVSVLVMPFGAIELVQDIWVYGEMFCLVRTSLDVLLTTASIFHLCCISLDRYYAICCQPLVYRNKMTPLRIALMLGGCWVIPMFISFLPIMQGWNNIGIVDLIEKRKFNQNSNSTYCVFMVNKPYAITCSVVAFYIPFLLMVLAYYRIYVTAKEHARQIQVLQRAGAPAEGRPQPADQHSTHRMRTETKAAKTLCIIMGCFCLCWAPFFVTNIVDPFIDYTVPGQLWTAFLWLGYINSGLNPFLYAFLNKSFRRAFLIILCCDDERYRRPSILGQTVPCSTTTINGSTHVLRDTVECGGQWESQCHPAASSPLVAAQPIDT

[4] = molecular target: 5-hydroxytryptamine receptor 6 (Homo sapiens, UniProt P50406); test: In vitro binding affinity at human recombinant 5-hydroxytryptamine 6 receptor in mammalian cells using 3[H]LSD as the radioligand; type: cell-based
Sequence of 5-hydroxytryptamine receptor 6 (P50406 whole entry): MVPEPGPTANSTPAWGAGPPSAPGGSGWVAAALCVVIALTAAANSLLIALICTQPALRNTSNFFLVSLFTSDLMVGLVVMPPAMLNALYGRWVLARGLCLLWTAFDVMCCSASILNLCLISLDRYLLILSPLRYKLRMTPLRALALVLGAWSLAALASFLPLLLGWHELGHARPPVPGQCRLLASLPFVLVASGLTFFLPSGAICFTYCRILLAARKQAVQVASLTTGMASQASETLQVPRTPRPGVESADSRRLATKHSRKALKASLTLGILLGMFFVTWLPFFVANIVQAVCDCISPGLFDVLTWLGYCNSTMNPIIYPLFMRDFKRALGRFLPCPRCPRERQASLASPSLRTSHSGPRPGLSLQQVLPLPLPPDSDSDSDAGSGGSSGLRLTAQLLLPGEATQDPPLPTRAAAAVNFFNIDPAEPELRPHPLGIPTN

[5] = molecular target: 5-hydroxytryptamine receptor 1B (Rattus norvegicus, UniProt P28564); test: In vitro binding affinity at 5-hydroxytryptamine 1B receptor in rat striatal […] using [125I](-)-iodocyanopindolol as the radioligand
Sequence of 5-hydroxytryptamine receptor 1B (P28564 whole entry): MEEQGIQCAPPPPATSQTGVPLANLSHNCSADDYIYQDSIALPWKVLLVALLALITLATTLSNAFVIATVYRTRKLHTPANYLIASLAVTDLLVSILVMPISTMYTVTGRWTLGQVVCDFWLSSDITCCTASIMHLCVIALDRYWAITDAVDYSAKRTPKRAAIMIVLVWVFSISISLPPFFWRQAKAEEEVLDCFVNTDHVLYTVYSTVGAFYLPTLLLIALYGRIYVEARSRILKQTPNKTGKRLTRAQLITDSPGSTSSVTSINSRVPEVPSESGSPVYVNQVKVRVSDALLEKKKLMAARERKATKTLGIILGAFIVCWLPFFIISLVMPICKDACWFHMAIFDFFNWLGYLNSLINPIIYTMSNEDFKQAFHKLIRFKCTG

[6] = molecular target: T1, Serotonin 3 receptor (5HT3) (Mus musculus, UniProt Q9JHJ5+P23979); test: In vitro binding affinity at 5-hydroxytryptamine 3 receptor in N1E-115 cells using 3[H]GR-65630 as the radioligand; type: cell-based
T1 sequence (Q9JHJ5 whole entry): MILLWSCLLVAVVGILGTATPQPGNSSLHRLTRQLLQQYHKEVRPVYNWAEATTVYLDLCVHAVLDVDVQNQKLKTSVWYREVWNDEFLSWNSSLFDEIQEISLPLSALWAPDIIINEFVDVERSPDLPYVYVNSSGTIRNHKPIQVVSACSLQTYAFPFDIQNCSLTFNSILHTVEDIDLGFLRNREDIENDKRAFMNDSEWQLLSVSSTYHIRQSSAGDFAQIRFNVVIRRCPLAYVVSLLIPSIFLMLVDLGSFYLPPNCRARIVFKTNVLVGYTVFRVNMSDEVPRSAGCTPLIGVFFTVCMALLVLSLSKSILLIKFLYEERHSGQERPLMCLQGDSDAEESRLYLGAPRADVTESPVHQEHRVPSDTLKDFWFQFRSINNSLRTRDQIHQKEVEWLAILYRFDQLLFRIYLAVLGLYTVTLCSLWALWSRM
T1 sequence (P23979 whole entry): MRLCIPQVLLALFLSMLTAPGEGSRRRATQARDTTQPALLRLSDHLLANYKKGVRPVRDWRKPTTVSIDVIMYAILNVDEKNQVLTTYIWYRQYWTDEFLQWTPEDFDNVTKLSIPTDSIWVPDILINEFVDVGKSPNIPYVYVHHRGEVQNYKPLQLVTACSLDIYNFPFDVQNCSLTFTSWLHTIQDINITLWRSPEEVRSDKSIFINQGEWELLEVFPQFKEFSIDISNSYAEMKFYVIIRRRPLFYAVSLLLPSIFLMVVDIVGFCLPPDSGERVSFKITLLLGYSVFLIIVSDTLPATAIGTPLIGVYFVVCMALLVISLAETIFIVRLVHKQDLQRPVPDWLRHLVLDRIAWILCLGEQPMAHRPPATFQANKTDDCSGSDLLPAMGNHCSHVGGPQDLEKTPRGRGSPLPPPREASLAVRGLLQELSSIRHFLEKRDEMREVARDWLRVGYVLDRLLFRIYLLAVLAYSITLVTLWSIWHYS

[7] = molecular target: T2, 5-hydroxytryptamine receptor 1A (Homo sapiens, UniProt P08908); test: In vitro binding affinity at human recombinant 5-hydroxytryptamine 1A receptor in mammalian cells using 3[H]8-OH-DPAT as the radioligand; type: cell-based
T2 sequence (P08908 whole entry): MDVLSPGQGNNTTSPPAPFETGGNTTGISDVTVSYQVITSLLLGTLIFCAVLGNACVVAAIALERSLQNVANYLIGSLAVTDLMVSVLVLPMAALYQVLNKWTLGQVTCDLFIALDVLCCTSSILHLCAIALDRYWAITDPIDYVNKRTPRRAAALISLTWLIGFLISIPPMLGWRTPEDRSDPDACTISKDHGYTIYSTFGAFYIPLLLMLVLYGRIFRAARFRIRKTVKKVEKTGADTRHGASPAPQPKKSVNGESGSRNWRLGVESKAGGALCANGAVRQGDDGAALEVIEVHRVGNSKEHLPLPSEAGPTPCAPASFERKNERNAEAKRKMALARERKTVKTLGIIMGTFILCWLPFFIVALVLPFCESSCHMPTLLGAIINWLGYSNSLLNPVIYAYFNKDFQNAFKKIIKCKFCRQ

| Structure (SMILES) | Log Ki [1] | Ki [2] | other results |
| --- | --- | --- | --- |
| C=CCn1c2c(c3ccccc31)CCN(CCCCC13CCCc4cccc(c41)NC3=O)C2 (stereo not drawn) | -6.55 | 6.03 nM | – |
| COc1ccc2c3c1CCCC3(CCCCN1CC=C(c3ccccc3)CC1)C(=O)N2 (stereo not drawn) | -7.55 | 110 nM | – |
| O=C1Nc2cccc3c2C1(CCCCN1CCN(c2ccccc2Cl)CC1)CCC3 (stereo not drawn) | -7.01 | 12.3 nM | – |
| Cc1cccc(C)c1N1CCN(CCCCC23CCCc4cccc(c42)NC3=O)CC1 (stereo not drawn) | -5.85 | 148 nM | – |
| COc1ccc(N2CCN(CCCCC34CCCc5cccc(c53)NC4=O)CC2)cc1 (stereo not drawn) | -6.69 | 20.4 nM | – |
| Cn1c2c(c3ccccc31)CCN(CCCCC13CCCc4cccc(c41)NC3=O)C2 (stereo not drawn) | -6.28 | 19.1 nM | – |
| O=C1Nc2cccc3c2C1(CCCCN1CCN(c2ccccc2C(F)(F)F)CC1)CCC3 (stereo not drawn) | -5.86 | 74.1 nM | – |
| O=C1Nc2cccc3c2C1(CCCCN1CCN(C2CCCCC2)CC1)CCC3 (stereo not drawn) | < -6 | – | – |
| O=C1Nc2cccc3c2C1(CCCCN1CCC(O)(c2ccccc2)CC1)CCC3 (stereo not drawn) | -6.35 | 43.7 nM | – |
| Cc1ccc(C2=CCN(CCCCC34CCCc5cccc(c53)NC4=O)CC2)cc1 (stereo not drawn) | -6.94 | 4.79 nM | – |
| CN(C)C(=O)Cn1c2c(c3ccccc31)CCN(CCCCC13CCCc4cccc(c41)NC3=O)C2 (stereo not drawn) | < -6 | 19.1 nM | – |
| CC(=O)c1ccc2c3c1CCCC3(CCCCN1CC=C(c3ccccc3)CC1)C(=O)N2 (stereo not drawn) | -7.12 | 97.7 nM | – |
| O=C1Nc2cccc3c2C1(CCCCN1CCN(c2ncccn2)CC1)CCC3 (stereo not drawn) | -6.91 | 45.7 nM | – |
| O=C1Nc2cccc3c2C1(CCCCN1CCC(c2ccccc2)CC1)CCC3 (stereo not drawn) | -6.84 | 3.98 nM | – |
| O=C1Nc2cccc3c2C1(CCCCN1CCN(c2ccccc2[N+](=O)[O-])CC1)CCC3 (stereo not drawn) | -7.34 | 24 nM | – |
| O=C1Nc2ccc(Br)c3c2C1(CCCCN1CC=C(c2ccccc2)CC1)CCC3 (stereo not drawn) | -6.54 | 12.3 nM | – |
| O=C1Nc2ccc(O)c3c2C1(CCCCN1CC=C(c2ccccc2)CC1)CCC3 (stereo not drawn) | -7.4 | 8.13 nM | – |
| CC(=O)n1c2c(c3ccccc31)CCN(CCCCC13CCCc4cccc(c41)NC3=O)C2 (stereo not drawn) | -6.27 | 6.46 nM | – |

| Structure (SMILES) | Log Ki [1] | Ki [2] | other results |
| --- | --- | --- | --- |
| COc1ccc2[nH]c3c(c2c1)CCN(CCCCC12CCCc4cccc(c41)NC2=O)C3 (stereo not drawn) | -6.17 | 29.5 nM | – |
| COc1cccc(N2CCN(CCCCC34CCCc5cccc(c53)NC4=O)CC2)c1 (stereo not drawn) | -7.19 | 2.34 nM | – |
| NCCc1c[nH]c2ccc(C(N)=O)cc12 | < -6 | – | – |
| Cc1ccccc1N1CCN(CCCCC23CCCc4cccc(c42)NC3=O)CC1 (stereo not drawn) | -7.35 | 10.5 nM | – |
| COC1(c2ccccc2)CCN(CCCCC23CCCc4cccc(c42)NC3=O)CC1 (stereo not drawn) | -6.43 | 21.9 nM | – |
| COCn1c2c(c3ccccc31)CCN(CCCCC13CCCc4cccc(c41)NC3=O)C2 (stereo not drawn) | -6.24 | 17 nM | – |
| NC(=O)C1(c2ccccc2)CCN(CCCCC23CCCc4cccc(c42)NC3=O)CC1 (stereo not drawn) | -7.8 | 224 nM | – |
| NC(=O)c1ccc2c3c1CCCC3(CCCCN1CC=C(c3ccccc3)CC1)C(=O)N2 (stereo not drawn) | -6.8 | 417 nM | – |
| O=C1Nc2cccc3c2C1(CCCCN1CCc2c([nH]c4ccccc24)C1)CCC3 (stereo not drawn) | -6.62 | 5.75 nM | – |
| CN(C)C(=O)n1c2c(c3ccccc31)CCN(CCCCC13CCCc4cccc(c41)NC3=O)C2 (stereo not drawn) | -6.12 | 7.08 nM | – |
| CC(=O)C1(c2ccccc2)CCN(CCCCC23CCCc4cccc(c42)NC3=O)CC1 (stereo not drawn) | -7.01 | 72.4 nM | – |
| CN1C(=O)C2(CCCCN3CC=C(c4ccccc4)CC3)CCCc3cccc1c32 (stereo not drawn) | -6.88 | 25.1 nM | – |
| O=C1Nc2cccc3c2C1(CCCCN1CC=C(c2ccc(F)cc2)CC1)CCC3 (stereo not drawn) | -7.1 | 3.55 nM | – |
| NC(=O)c1ccccc1N1CCN(CCCCC23CCCc4cccc(c42)NC3=O)CC1 (stereo not drawn) | -6.05 | 17.4 nM | – |
| CC(=O)c1ccccc1N1CCN(CCCCC23CCCc4cccc(c42)NC3=O)CC1 (stereo not drawn) | -6.45 | 7.94 nM | – |
| NC(=O)Cn1c2c(c3ccccc31)CCN(CCCCC13CCCc4cccc(c41)NC3=O)C2 (stereo not drawn) | -6.09 | 8.71 nM | – |
| CNC(=O)Cn1c2c(c3ccccc31)CCN(CCCCC13CCCc4cccc(c41)NC3=O)C2 (stereo not drawn) | < -6 | 3.55 nM | Ki [3]: 490 nM; Ki [4]: > 1000 nM; Ki [5]: > 1000 nM; Log Ki [6]: > -6; Ki [7]: 129 nM |
